Each structure is given as a SMILES string. Values after ≈ are worked out from the molar mass of the structure shown. Where a SMILES comes first, the peptide text is derived from it. Bridges are numbered along the chain shown (N, C = ends).

The test system of data set [1] is CEM-SS (Homo sapiens). The data set can be described thus: Cytotoxicity against human CEM-SS cells.
Data set [2] concerns Human immunodeficiency virus 1. The data set can be described thus: Antiviral activity against HIV1. It is filed as functional, organism-based.
Data set [3] deals with Candida tropicalis. The data set is described as follows: Antimicrobial activity against Candida tropicalis ATCC 37097. Type of data set: functional.
Data set [4] has as its system Staphylococcus aureus. The data set can be described thus: Antimicrobial activity against Staphylococcus aureus ATCC 29213. Type of data set: functional.
For data set [5], the system named is Proteus vulgaris. The data set can be described thus: Antimicrobial activity against Proteus vulgaris ATCC 49132. Type of data set: functional.
Data set [6] deals with Kluyveromyces marxianus. The data set can be described thus: Antimicrobial activity against Candida kefyr ATCC 37095. It is filed as functional.
Data set [7] in a line: Hemolytic activity in human type A RBC. It is filed as ADME, cell-based, Erythrocyte. The note with it: human type A red blood cells, read-out: HD50 (the source's name).

Usually IC50 stands for the point on the concentration scale where inhibition reaches its midpoint. A high value points to weaker potency in that assay. The EC50 is the concentration at which the effect is half-maximal. Molecule `CC[C@H](C)[C@@H]1NC(=O)[C@H](C)NC(=O)[C@H](C)NC(=O)[C@H](CO)NC(=O)[C@H]([C@@H](C)CC)NC(=O)[C@@H]2CSSC[C@@H]3NC(=O)[C@H](C(C)C)NC(=O)[C@H](CCCCN)NC(=O)[C@H](CC(N)=O)NC(=O)[C@H](CCCCN)NC(=O)[C@@H]4CSSC[C@H](NC(=O)[C@H](CO)NC(=O)[C@H](CCC(=O)O)NC(=O)CNC(=O)[C@H](CSSC[C@H](NC(=O)CNC1=O)C(=O)N[C@@H](CO)C(=O)N4)NC(=O)[C@@H]1CCCN1C(=O)[C@H]([C@@H](C)CC)NC(=O)[C@H](C(C)C)NC(=O)CNC(=O)[C@H](CC(N)=O)NC(=O)[C@H](CCCNC(=N)N)NC(=O)[C@H](Cc1ccc(O)cc1)NC3=O)C(=O)N[C@@H](C(C)C)C(=O)N[C@@H](Cc1ccccc1)C(=O)N[C@@H]([C@@H](C)CC)C(=O)N1CCC[C@H]1C(=O)N2` [CYCLOVIOLN A] (cyclo(AAIGCSCKNKVCYRNGVIPCGESCVFIPCIS); disulfide 5-20, 7-24, 12-29) came in with a concentration for half-maximal inhibition (IC50) in data set [1] of 560 nM. This molecule also returned an EC50 in data set [2] of 130 nM.

With `CC[C@H](C)[C@@H]1NC(=O)[C@H](C)NC(=O)[C@H](C)NC(=O)[C@H](CO)NC(=O)[C@H]([C@@H](C)CC)NC(=O)[C@@H]2CSSC[C@@H]3NC(=O)[C@H](C(C)C)NC(=O)[C@H](CCCCN)NC(=O)[C@H](CC(N)=O)NC(=O)[C@H](CCCCN)NC(=O)[C@@H]4CSSC[C@H](NC(=O)[C@H](CO)NC(=O)[C@H](CCC(=O)O)NC(=O)CNC(=O)[C@H](CSSC[C@H](NC(=O)CNC1=O)C(=O)N[C@@H](CO)C(=O)N4)NC(=O)[C@@H]1CCCN1C(=O)[C@H](Cc1ccccc1)NC(=O)CNC(=O)[C@H](CC(N)=O)NC(=O)[C@H](CCCNC(=N)N)NC(=O)[C@H](Cc1ccc(O)cc1)NC3=O)C(=O)N[C@@H](C(C)C)C(=O)N[C@@H](Cc1ccccc1)C(=O)N[C@@H]([C@@H](C)CC)C(=O)N1CCC[C@H]1C(=O)N2` [CYCLOVIOLIN D] (cyclo(AAIGCSCKNKVCYRNGFPCGESCVFIPCIS); disulfide 5-19, 7-23, 12-28), the IC50 in data set [1] came out at 560 nM. The same molecule returned an EC50 in data set [2] of 130 nM.

In turn, `CC[C@H](C)[C@@H]1NC(=O)[C@@H]2CSSC[C@@H]3NC(=O)[C@H](C(C)C)NC(=O)[C@H](CCCCN)NC(=O)[C@H](CO)NC(=O)[C@H](CCCCN)NC(=O)[C@@H]4CSSC[C@H](NC(=O)[C@H](CO)NC(=O)[C@H](CCC(=O)O)NC(=O)CNC(=O)[C@H](CSSC[C@H](NC(=O)CNC(=O)[C@H](C)NC(=O)[C@H](C(C)C)NC(=O)[C@H](CO)NC(=O)[C@H]([C@@H](C)O)NC1=O)C(=O)N[C@@H](CO)C(=O)N4)NC(=O)[C@@H]1CCCN1C(=O)[C@H]([C@@H](C)CC)NC(=O)CNC(=O)[C@H](CC(N)=O)NC(=O)[C@H](CCCNC(=N)N)NC(=O)[C@H](Cc1ccc(O)cc1)NC3=O)C(=O)N[C@@H](C(C)C)C(=O)N[C@@H](Cc1ccccc1)C(=O)N[C@@H]([C@@H](C)CC)C(=O)N1CCC[C@H]1C(=O)N2` [CIRCULIN C] (cyclo(AGCSCKSKVCYRNGIPCGESCVFIPCITSV); disulfide 3-17, 5-21, 10-26) displayed an IC50 in data set [1] of 500 nM.

In the case of `CC(C)C[C@@H]1NC(=O)[C@H](C(C)C)NC(=O)[C@H](Cc2ccc(O)cc2)NC(=O)[C@@H]2CSSC[C@@H]3NC(=O)[C@H]([C@@H](C)O)NC(=O)[C@@H]4CSSC[C@H](NC(=O)[C@H](C)NC(=O)[C@H]([C@@H](C)O)NC(=O)CNC(=O)[C@H](CC(N)=O)NC(=O)[C@H](CCCCN)NC(=O)[C@H](Cc5ccccc5)NC(=O)[C@H](CSSC[C@H](NC(=O)[C@@H]5CCCN5C1=O)C(=O)N[C@@H](Cc1ccccc1)C(=O)N[C@@H]([C@@H](C)O)C(=O)N[C@@H](C(C)C)C(=O)NCC(=O)N4)NC(=O)[C@H](CCC(N)=O)NC(=O)[C@H](CO)NC(=O)[C@H](CO)NC(=O)[C@H]([C@@H](C)O)NC3=O)C(=O)NCC(=O)N[C@@H](CCC(=O)O)C(=O)N[C@@H](CO)C(=O)N2` [CYCLOVIOLIN B] (cyclo(ACGESCYVLPCFTVGCTCTSSQCFKNGT); disulfide 2-16, 6-18, 11-23), the midpoint of inhibition in data set [1], the IC50, lay at 560 nM. The EC50 in data set [2] was determined as 130 nM.

On to `CC[C@H](C)[C@@H]1NC(=O)[C@H](C)NC(=O)[C@H](C)NC(=O)[C@H](CO)NC(=O)[C@H]([C@@H](C)CC)NC(=O)[C@@H]2CSSC[C@@H]3NC(=O)[C@H](C(C)C)NC(=O)[C@H](CCCCN)NC(=O)[C@H](CC(N)=O)NC(=O)[C@H](CCCCN)NC(=O)[C@@H]4CSSC[C@H](NC(=O)[C@H](CO)NC(=O)[C@H](CCC(=O)O)NC(=O)CNC(=O)[C@H](CSSC[C@H](NC(=O)CNC1=O)C(=O)N[C@@H](CO)C(=O)N4)NC(=O)[C@@H]1CCCN1C(=O)[C@H]([C@@H](C)CC)NC(=O)[C@H](C)NC(=O)[C@H](CCCNC(=N)N)NC(=O)[C@H](Cc1ccc(O)cc1)NC3=O)C(=O)N[C@@H](C(C)C)C(=O)N[C@@H](Cc1c[nH]c3ccccc13)C(=O)N[C@@H]([C@@H](C)CC)C(=O)N1CCC[C@H]1C(=O)N2` [CIRCULIN F] (cyclo(AAIGCSCKNKVCYRAIPCGESCVWIPCIS); disulfide 5-18, 7-22, 12-27), for which it took 500 nM to reach half-maximal inhibition in data set [1] (IC50).

In turn, `CC[C@H](C)[C@@H]1NC(=O)CNC(=O)[C@H](CC(N)=O)NC(=O)[C@H](CCCNC(=N)N)NC(=O)[C@H](Cc2ccc(O)cc2)NC(=O)[C@@H]2CSSC[C@@H]3NC(=O)[C@@H]4CCCN4C(=O)[C@H]([C@@H](C)CC)NC(=O)[C@H](Cc4ccccc4)NC(=O)[C@H](C(C)C)NC(=O)[C@@H]4CSSC[C@H](NC(=O)[C@H](CO)NC(=O)[C@H](CSSC[C@H](NC(=O)[C@@H]5CCCN5C1=O)C(=O)NCC(=O)N[C@@H](CCC(=O)O)C(=O)N[C@@H](CO)C(=O)N4)NC(=O)CNC(=O)[C@H](C)NC(=O)[C@H](C(C)C)NC(=O)[C@H]([C@@H](C)O)NC(=O)[C@H]([C@@H](C)O)NC(=O)[C@H](CC(C)C)NC3=O)C(=O)N[C@@H](CCCCN)C(=O)N[C@@H](CC(N)=O)C(=O)N[C@@H](CCCCN)C(=O)N[C@@H](C(C)C)C(=O)N2` [CYCLOVIOLIN C] (cyclo(AGCSCKNKVCYRNGIPCGESCVFIPCLTTV); disulfide 3-17, 5-21, 10-26) returned an IC50 in data set [1] of 560 nM. Besides, a half-maximal effect in data set [2] (EC50) was put at 130 nM.

`CC[C@H](C)[C@@H]1NC(=O)[C@H](CCCCN)NC(=O)[C@H](CC(=O)O)NC(=O)[C@H](Cc2cnc[nH]2)NC(=O)[C@H](Cc2ccc(O)cc2)NC(=O)[C@@H]2CSSC[C@@H]3NC(=O)[C@@H]4CCCN4C(=O)[C@H]([C@@H](C)CC)NC(=O)[C@H](Cc4c[nH]c5ccccc45)NC(=O)[C@H](C(C)C)NC(=O)[C@@H]4CSSC[C@H](NC(=O)[C@H](CCCCN)NC(=O)[C@H](CSSC[C@H](NC(=O)[C@@H]5CCCN5C1=O)C(=O)NCC(=O)N[C@@H](CCC(=O)O)C(=O)N[C@@H](CO)C(=O)N4)NC(=O)[C@H](CC(N)=O)NC(=O)[C@H](Cc1ccccc1)NC(=O)[C@H](C(C)C)NC(=O)[C@H](CO)NC(=O)[C@H]([C@@H](C)O)NC(=O)[C@H](CC(C)C)NC3=O)C(=O)N[C@@H](CCC(=O)O)C(=O)N[C@@H](CC(N)=O)C(=O)N[C@@H](CCCCN)C(=O)N[C@@H](C(C)C)C(=O)N2` [CIRCULIN E] (cyclo(CENKVCYHDKIPCGESCVWIPCLTSVFNCK); disulfide 1-17, 6-22, 13-29) registered an IC50 in data set [1] of 500 nM.

One may read the MIC as the lowest concentration that inhibits growth of the organism. A low value points to greater potency. In the case of `CC[C@H](C)[C@@H]1NC(=O)[C@@H]2CSSC[C@@H]3NC(=O)[C@H](C(C)C)NC(=O)[C@H](CCCCN)NC(=O)[C@H](CC(N)=O)NC(=O)[C@H](CCCCN)NC(=O)[C@@H]4CSSC[C@H](NC(=O)[C@H](CO)NC(=O)[C@H](CCC(=O)O)NC(=O)CNC(=O)[C@H](CSSC[C@H](NC(=O)CNC(=O)[C@H](CC(C)C)NC(=O)[C@H](C)NC(=O)[C@H](C)NC(=O)[C@H](CO)NC1=O)C(=O)N[C@@H](CO)C(=O)N4)NC(=O)[C@@H]1CCCN1C(=O)[C@H]([C@@H](C)CC)NC(=O)CNC(=O)[C@H](CC(N)=O)NC(=O)[C@H](CCCNC(=N)N)NC(=O)[C@H](Cc1ccc(O)cc1)NC3=O)C(=O)N[C@@H](C(C)C)C(=O)N[C@@H](Cc1c[nH]c3ccccc13)C(=O)N[C@@H]([C@@H](C)CC)C(=O)N1CCC[C@H]1C(=O)N2` [CIRCULIN A] (cyclo(AALGCSCKNKVCYRNGIPCGESCVWIPCIS); disulfide 5-19, 7-23, 12-28), the MIC came to 19.4 µM (≈ 61.1 µg/mL) in data set [3], 0.19 µM (≈ 0.599 µg/mL) in data set [4], 54.6 µM (≈ 172 µg/mL) in data set [5] and 18.6 µM (≈ 58.6 µg/mL) in data set [6]. This molecule displayed a 50% inhibitory concentration (IC50) in data set [1] of 500 nM. Moreover, the HC50 in data set [7] was 1.02 mM.

Take `CC[C@H](C)[C@@H]1NC(=O)[C@H](CO)NC(=O)[C@H]([C@@H](C)O)NC(=O)[C@H](Cc2ccc(O)cc2)NC(=O)[C@@H]2CSSC[C@@H]3NC(=O)[C@H](C(C)C)NC(=O)[C@H](CCCCN)NC(=O)[C@H](CC(N)=O)NC(=O)[C@H](CCC(=O)O)NC(=O)[C@@H]4CSSC[C@H](NC(=O)[C@H](CO)NC(=O)[C@H](CCC(=O)O)NC(=O)CNC(=O)[C@H](CSSC[C@H](NC(=O)[C@H](CC(N)=O)NC(=O)[C@H](Cc5ccccc5)NC1=O)C(=O)N[C@@H](CCCCN)C(=O)N4)NC(=O)[C@@H]1CCCN1C(=O)[C@H]([C@@H](C)CC)NC(=O)[C@H](CCCCN)NC(=O)[C@H](CC(=O)O)NC(=O)[C@H](Cc1cnc[nH]1)NC(=O)[C@H](Cc1ccc(O)cc1)NC3=O)C(=O)N[C@@H](C(C)C)C(=O)N[C@@H](Cc1c[nH]c3ccccc13)C(=O)N[C@@H]([C@@H](C)CC)C(=O)N1CCC[C@H]1C(=O)N2` [CIRCULIN D] (cyclo(CENKVCYHDKIPCGESCVWIPCYTSIFNCK); disulfide 1-17, 6-22, 13-29): the half-inhibitory concentration (IC50) in data set [1] worked out at 500 nM.
